From ChEMBL document CHEMBL1131884, “Dicationic 2-fluorenonylcarbapenems: potent anti-MRS agents with improved solubility and pharmacokinetic properties” (Bioorg Med Chem Lett, 1999)
pIC50: −log10 of the molar value. ≈ marks a conversion by molar mass, not a printed value.

Columns and labels:
Enterococcus faecalis [1] = assay: Antibacterial activity against vancomycin-resistant Enterococcus faecalis strain; type: functional
Enterococcus faecium = assay: Antibacterial activity against vancomycin-resistant Enterococcal faecium strain; type: functional
Bacteria = assay: Antibacterial activity against Gram negative bacteria; type: functional
Mus musculus [2] = assay: In vivo antibacterial activity against MSSA MB 2985 strain at the dose ~4 *10e7 cfu in brain heart broth along with antibiotic by sc administration at 0 hour in mice; type: functional
Mus musculus [3] = assay: In vivo antibacterial activity against MSSA MB 2985 strain at the dose ~4 *10e7 cfu in brain heart broth along with antibiotic by administration at 0 hour in mice; type: functional
Staphylococcus sp. = assay: Antibacterial activity against methicillin-resistant coagulase negative Staphylococci (MRCNS); type: functional
Streptococcus pyogenes = assay: Antibacterial activity against Streptococcus pyogenes; type: functional
Streptococcus pneumoniae = assay: Antibacterial activity against penicillin-resistant Streptococcus pneumoniae; type: functional
Staphylococcus aureus [4] = assay: Antibacterial activity against methicillin-resistant Staphylococcus aureus (MRSA); type: functional
Mus musculus [5] = assay: In vivo antibacterial activity against MRSA 76 virginia strain at the dose ~1 *10e7 cfu in 5 percent hog gastric mucin along with antibiotic by sc administration at 0 and +4 hrs in mice; type: functional
[6] = target: T1, Dipeptidase 1 (Sus scrofa) (UniProt P22412); assay: Susceptibility to mammalian dehydropeptidas, DHP-1(Porcine)
T1 sequence (whole entry): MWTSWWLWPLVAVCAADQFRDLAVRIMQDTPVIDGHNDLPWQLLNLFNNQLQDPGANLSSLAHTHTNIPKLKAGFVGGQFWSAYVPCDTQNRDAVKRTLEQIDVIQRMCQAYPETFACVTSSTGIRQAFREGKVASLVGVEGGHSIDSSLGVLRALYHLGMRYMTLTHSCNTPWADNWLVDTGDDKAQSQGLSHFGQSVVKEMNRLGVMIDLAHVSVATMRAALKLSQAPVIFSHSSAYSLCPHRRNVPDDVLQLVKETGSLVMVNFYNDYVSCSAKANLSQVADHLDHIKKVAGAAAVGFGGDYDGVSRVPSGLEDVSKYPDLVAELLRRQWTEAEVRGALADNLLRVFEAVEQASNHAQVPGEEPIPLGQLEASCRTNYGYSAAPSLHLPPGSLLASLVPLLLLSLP

Enterococcus faecalis [7] = assay: Antibacterial activity against Enterococcus faecalis; type: functional
Staphylococcus aureus [8] = assay: Antibacterial activity against MSSA (Methicillin-sensitive Staphylococcus aureus); type: functional
MecA = target: T2, MecA (Staphylococcus aureus, UniProt Q7DHH4); assay: Binding affinity against PBP2a receptor by competition analysis with [3H]benzylpenicillin using cell membrane fractions from the MRSA COL strain.
T2 sequence (Q7DHH4 whole entry): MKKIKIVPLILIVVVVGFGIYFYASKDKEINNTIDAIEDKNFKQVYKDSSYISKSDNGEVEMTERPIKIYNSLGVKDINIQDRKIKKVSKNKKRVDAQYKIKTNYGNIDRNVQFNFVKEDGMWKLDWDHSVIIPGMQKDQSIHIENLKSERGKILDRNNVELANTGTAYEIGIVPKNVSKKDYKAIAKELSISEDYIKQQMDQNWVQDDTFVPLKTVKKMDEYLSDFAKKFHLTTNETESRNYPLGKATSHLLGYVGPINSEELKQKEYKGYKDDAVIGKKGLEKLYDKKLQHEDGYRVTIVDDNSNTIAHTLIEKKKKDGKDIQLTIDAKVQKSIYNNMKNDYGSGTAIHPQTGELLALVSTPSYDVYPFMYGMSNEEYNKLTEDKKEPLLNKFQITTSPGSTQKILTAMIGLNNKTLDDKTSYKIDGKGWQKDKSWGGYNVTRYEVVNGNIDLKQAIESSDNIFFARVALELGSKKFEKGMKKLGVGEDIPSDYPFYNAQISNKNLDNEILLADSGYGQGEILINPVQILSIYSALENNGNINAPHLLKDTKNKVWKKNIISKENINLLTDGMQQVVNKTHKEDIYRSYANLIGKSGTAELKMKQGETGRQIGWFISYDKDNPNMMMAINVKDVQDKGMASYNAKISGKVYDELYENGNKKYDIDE

| SMILES | MIC50 (Staphylococcus sp.) | MIC90 (Staphylococcus sp.) | MIC50 (Staphylococcus aureus [4]) | MIC90 (Staphylococcus aureus [4]) | pIC50 (MecA) | further results |
| --- | --- | --- | --- | --- | --- | --- |
| CN[C@H](CC(C)C)C(=O)N[C@H]1C(=O)N[C@@H](CC(N)=O)C(=O)N[C@H]2C(=O)N[C@H]3C(=O)N[C@H](C(=O)N[C@H](C(=O)O)c4cc(O)cc(O)c4-c4cc3ccc4O)[C@H](O)c3ccc(c(Cl)c3)Oc3cc2cc(c3O[C@@H]2O[C@H](CO)[C@@H](O)[C@H](O)[C@H]2O[C@H]2C[C@](C)(N)[C@H](O)[C@H](C)O2)Oc2ccc(cc2Cl)[C@H]1O [VANCOMYCIN] | 4 µg/mL (≈ 2.76 µM) | 4 µg/mL (≈ 2.76 µM) | 1 µg/mL (≈ 0.69 µM) | 2 µg/mL (≈ 1.38 µM) |  | MIC (Enterococcus faecalis [1]): 32 µg/mL (≈ 22.1 µM); MIC (Enterococcus faecium): > 64 µg/mL; MIC (Bacteria): > 64 µg/mL; ED50 (Mus musculus [2]): 3.7 mg/kg; MIC (Mus musculus [3]): 1 µg/mL (≈ 0.69 µM); MIC (Streptococcus pyogenes): 0.25 µg/mL (≈ 0.173 µM); MIC (Streptococcus pneumoniae): 0.25 µg/mL (≈ 0.173 µM); ED50 (Mus musculus [5]): 2.33 mg kg-1 dose-1; MIC (Mus musculus [5]): 1 µg/mL (≈ 0.69 µM) |
| C[C@@H](O)[C@H]1C(=O)N2C(C(=O)O)=C(SCCNC=N)C[C@H]12 [IMIPENEM ANHYDROUS] | 128 µg/mL (≈ 428 µM) | 256 µg/mL (≈ 855 µM) | 64 µg/mL (≈ 214 µM) | 128 µg/mL (≈ 428 µM) |  | Rate of hydrolysis [6]: 1; MIC (Enterococcus faecalis [7]): 2 µg/mL (≈ 6.68 µM); MIC (Enterococcus faecalis [1]): 8 µg/mL (≈ 26.7 µM); MIC (Enterococcus faecium): > 64 µg/mL; MIC (Bacteria): 0.45 µg/mL (≈ 1.5 µM); ED50 (Mus musculus [2]): 0.021 mg/kg; MIC (Mus musculus [3]): 0.008 µg/mL (≈ 0.0267 µM); MIC (Staphylococcus aureus [8]): 0.03 µg/mL (≈ 0.1 µM); MIC (Streptococcus pyogenes): < 0.031 µg/mL; MIC (Streptococcus pneumoniae): 0.35 µg/mL (≈ 1.17 µM); ED50 (Mus musculus [5]): 15.7 mg kg-1 dose-1; MIC (Mus musculus [5]): 64 µg/mL (≈ 214 µM) |
| CC(=O)c1ccc(NC(=O)C[N+]23CC[N+](Cc4ccc5c(c4)C(=O)c4ccc(C6=C(C(=O)O)N7C(=O)[C@H]([C@@H](C)O)[C@H]7[C@H]6C)cc4-5)(CC2)CC3)cc1.[Cl-].[Cl-] | 1 µg/mL | 4 µg/mL | 0.5 µg/mL | 1 µg/mL | 5.50 |  |
| C[C@@H](O)[C@H]1C(=O)N2C(C(=O)O)=C(c3ccc4c(c3)-c3ccc(C[N+]56CC[N+](CC(=O)Nc7ccc(CO)cc7)(CC5)CC6)cc3C4=O)[C@H](C)[C@H]12.[Cl-].[Cl-] | 1 µg/mL | 4 µg/mL | 1 µg/mL | 2 µg/mL | 5.57 |  |
| C[C@@H](O)[C@H]1C(=O)N2C(C(=O)O)=C(c3ccc4c(c3)-c3ccc(C[N+]56CC[N+](CC(=O)Nc7ccccn7)(CC5)CC6)cc3C4=O)[C@H](C)[C@H]12.[Cl-].[Cl-] | 2 µg/mL | 8 µg/mL | 2 µg/mL | 4 µg/mL | 6.37 |  |
| C[C@@H](O)[C@H]1C(=O)N2C(C(=O)O)=C(c3ccc4c(c3)-c3ccc(C[N+]56CC[N+](CC(=O)N(C)C)(CC5)CC6)cc3C4=O)[C@H](C)[C@H]12.[Cl-].[Cl-] | 4 µg/mL | 16 µg/mL | 4 µg/mL | 8 µg/mL | 6.24 |  |
| COc1ccc(NC(=O)C[N+]23CC[N+](Cc4ccc5c(c4)C(=O)c4ccc(C6=C(C(=O)O)N7C(=O)[C@H]([C@@H](C)O)[C@H]7[C@H]6C)cc4-5)(CC2)CC3)cc1.[Cl-].[Cl-] | 1 µg/mL | 4 µg/mL | 1 µg/mL | 1 µg/mL | 5.93 |  |
| C[C@@H](O)[C@H]1C(=O)N2C(C(=O)O)=C(c3ccc4c(c3)-c3ccc(C[N+]56CC[N+](CCCC(N)=O)(CC5)CC6)cc3C4=O)[C@H](C)[C@H]12.[Cl-].[Cl-] | 4 µg/mL | 8 µg/mL | 4 µg/mL | 4 µg/mL | 5.53 |  |
| C[C@@H](O)[C@H]1C(=O)N2C(C(=O)O)=C(c3ccc4c(c3)-c3ccc(C[N+]56CC[N+](CC(=O)N(C)c7ccccc7)(CC5)CC6)cc3C4=O)[C@H](C)[C@H]12.[Cl-].[Cl-] | 8 µg/mL | 16 µg/mL | 4 µg/mL | 4 µg/mL | 5.91 |  |
| COc1cccc(NC(=O)C[N+]23CC[N+](Cc4ccc5c(c4)C(=O)c4ccc(C6=C(C(=O)O)N7C(=O)[C@H]([C@@H](C)O)[C@H]7[C@H]6C)cc4-5)(CC2)CC3)c1.[Cl-].[Cl-] | 1 µg/mL | 4 µg/mL | 1 µg/mL | 1 µg/mL | 5.61 |  |
| C[C@@H](O)[C@H]1C(=O)N2C(C(=O)O)=C(c3ccc4c(c3)-c3ccc(C[N+]56CC[N+](CCO)(CC5)CC6)cc3C4=O)[C@H](C)[C@H]12.[Cl-].[Cl-] | 4 µg/mL | 8 µg/mL | 4 µg/mL | 4 µg/mL | 5.99 |  |
| C[C@@H](O)[C@H]1C(=O)N2C(C(=O)O)=C(c3ccc4c(c3)-c3ccc(C[N+]56CC[N+](CC(=O)NC(C)(C)C)(CC5)CC6)cc3C4=O)[C@H](C)[C@H]12.[Cl-].[Cl-] | 4 µg/mL | 8 µg/mL | 2 µg/mL | 4 µg/mL | 5.46 |  |
| C[C@@H](O)[C@H]1C(=O)N2C(C(=O)O)=C(c3ccc4c(c3)-c3ccc(C[N+]56CC[N+](CC(=O)NCc7ccccc7)(CC5)CC6)cc3C4=O)[C@H](C)[C@H]12.[Cl-].[Cl-] | 1 µg/mL | 4 µg/mL | 1 µg/mL | 2 µg/mL | 5.88 |  |
| C[C@@H](O)[C@H]1C(=O)N2C(C(=O)O)=C(c3ccc4c(c3)-c3ccc(C[N+]56CC[N+](CC(=O)Nc7cccc(C(N)=O)c7)(CC5)CC6)cc3C4=O)[C@H](C)[C@H]12.[Cl-].[Cl-] | 1 µg/mL | 2 µg/mL | 1 µg/mL | 1 µg/mL | 5.91 |  |
| C[C@@H](O)[C@H]1C(=O)N2C(C(=O)O)=C(c3ccc4c(c3)-c3ccc(C[N+]56CC[N+](CC(=O)Nc7cccc(C#N)c7)(CC5)CC6)cc3C4=O)[C@H](C)[C@H]12.[Cl-].[Cl-] | 1 µg/mL | 2 µg/mL | 0.5 µg/mL | 1 µg/mL | 6.12 |  |
| C[C@@H](O)[C@H]1C(=O)N2C(C(=O)O)=C(c3ccc4c(c3)-c3ccc(C[N+]56CC[N+](CCCO)(CC5)CC6)cc3C4=O)C[C@H]12.[Cl-].[Cl-] | 4 µg/mL | 4 µg/mL | 2 µg/mL | 8 µg/mL | 5.90 |  |
| CC(=O)c1cccc(NC(=O)C[N+]23CC[N+](Cc4ccc5c(c4)C(=O)c4ccc(C6=C(C(=O)O)N7C(=O)[C@H]([C@@H](C)O)[C@H]7[C@H]6C)cc4-5)(CC2)CC3)c1.[Cl-].[Cl-] | 1 µg/mL | 4 µg/mL | 1 µg/mL | 2 µg/mL | 5.89 |  |
| C[C@@H](O)[C@H]1C(=O)N2C(C(=O)O)=C(c3ccc4c(c3)-c3ccc(C[N+]56CC[N+](CC#N)(CC5)CC6)cc3C4=O)[C@H](C)[C@H]12.[Cl-].[Cl-] | 4 µg/mL | 8 µg/mL | 2 µg/mL | 4 µg/mL | 6.33 |  |
| CC(C)NC(=O)C[N+]12CC[N+](Cc3ccc4c(c3)C(=O)c3ccc(C5=C(C(=O)O)N6C(=O)[C@H]([C@@H](C)O)[C@H]6[C@H]5C)cc3-4)(CC1)CC2.[Cl-].[Cl-] | 4 µg/mL | 8 µg/mL | 2 µg/mL | 4 µg/mL | 5.91 |  |
| C[C@@H](O)[C@H]1C(=O)N2C(C(=O)O)=C(c3ccc4c(c3)-c3ccc(C[N+]56CC[N+](CC(=O)Nc7ccccc7)(CC5)CC6)cc3C4=O)[C@H](C)[C@H]12.[Cl-].[Cl-] | 2 µg/mL | 4 µg/mL | 2 µg/mL | 2 µg/mL | 5.75 |  |
| C[C@@H](O)[C@H]1C(=O)N2C(C(=O)O)=C(c3ccc4c(c3)-c3ccc(C[N+]56CC[N+](CC(=O)Nc7ccccc7)(CC5)CC6)cc3C4=O)C[C@H]12.[Cl-].[Cl-] | 1 µg/mL | 1 µg/mL | 0.5 µg/mL | 2 µg/mL | 6.33 |  |
| C[C@@H](O)[C@H]1C(=O)N2C(C(=O)O)=C(c3ccc4c(c3)-c3ccc(C[N+]56CC[N+](CC(=O)Nc7cccc(CO)c7)(CC5)CC6)cc3C4=O)[C@H](C)[C@H]12.[Cl-].[Cl-] | 1 µg/mL | 4 µg/mL | 1 µg/mL | 2 µg/mL | 5.80 |  |
